SMILES | melting point
COC(=O)C1=C(C)NC(CO)=C(C(=O)OC)C1c1cccc([N+](=O)[O-])c1 (centres undefined) | 145 to 146 °C
CC(C)CCC1CCCCCc2c1oc(=O)c(C(c1ccccc1)C1CC1)c2O (centres undefined) | 83 to 88 °C
Cc1ccc(-c2[nH]c(C3CCCCC3)nc2C(=O)Nc2nccs2)cc1 | 199 to 200 °C
Nc1ccccc1Sc1ccncc1 | 103 to 107 °C
CCOC(=O)c1cn2c(nc1=O)CCC2 | 59 to 60 °C
COCCC(=O)OCC(=O)C1(O)CCC2C3CC(C)C4=CC(=O)C=CC4(C)C3C(O)CC21C (centres undefined) | 230 °C
OC(CN1CC=C(c2ccccc2)CC1)c1ccc(Cc2ccc(Cl)cc2)cc1 (centres undefined) | 135 to 137 °C
Sc1nncn1Cc1ccccc1 | 124 to 125 °C
COCCCn1c(Cl)nc2ccc(C)cc21 | 40 to 44 °C
CC(=O)N1CCC2(CC1)CN=C(c1cc3sc(C)c(N(C)S(=O)(=O)c4cccs4)c3[nH]1)S2 | 231 °C
Clc1ccc2c(c1)C(c1ccccc1)Nc1nncn1-2 (centres undefined) | 242 to 244 °C
O=C(N[C@H]1CC[C@@H](F)CC1)OCc1ccccc1 | 105 to 107 °C
NC(=O)CC(c1cccc(F)c1)c1cccc(F)c1 | 103 to 105 °C
Clc1ccc(-c2ccc(Br)cc2)nn1 | 201 to 203 °C
CCCc1c(O)ccc2c1OC(C)(CCC(=O)O)CC2=O (centres undefined) | 152 to 153 °C
CC1(C)CCC(C)(C)c2cc(-c3cnn(-c4ccc(C(=O)O)cc4)c3)ccc21 | 229 to 232 °C
COC1(c2ccc(N(C)C)cc2)OC(=O)c2ccccc21 (centres undefined) | 112 to 114 °C
FC(F)(F)c1cc(Cl)c(-n2nccc2Cl)c(Cl)c1 | 70 to 72 °C
NC(CO)c1ccc(-c2ccc(SC(F)F)cc2)cc1 (centres undefined) | 108 to 110 °C
NCCc1c2n(c3ccccc13)CCNCC2 | 77 to 80 °C
CCCCOC1OC(CO)C(O)C(O)(N(CC2CCCCC2)C(=O)N(CCCl)N=O)C1O (centres undefined) | 75 to 77 °C
Cc1cc(NC(=O)Cc2ccccc2C(F)(F)F)cc(C)c1S(=O)(=O)C[N+](=O)[O-] | 203 to 204 °C
N#Cc1cnn2c(C(F)(F)F)cc(-c3ccc(F)cc3F)nc12 | 149 °C
CCCCCCCCCC(=O)NC(=O)OCc1nc(C(C)C)c(Sc2cc(Cl)cc(Cl)c2)n1Cc1ccncc1 | 84 to 86 °C

Next, values leading:

melting point | SMILES
68 to 70 °C | C[C@H]1CN(c2nc(-c3ccccc3)nc3ccccc23)[C@@H](C)CN1c1ccccn1 (relative stereo)
151 to 155 °C | COc1ccc(COc2ccc(C=C3SC(=S)N(CC(=O)O)C3=O)cc2OCc2ccc(OC)cc2)cc1
238 to 241 °C | COc1ncc(-c2cc(N3CCOCC3)nc(-n3c(C(F)F)nc4c(OC)cccc43)n2)cn1
100 to 102 °C | CC(c1ccc(-c2ccccc2)c(F)c1)c1nc(CC(=O)O)no1 (centres undefined)
80 to 81 °C | CCC#CCCOc1ccc(C=O)cc1OC
88 °C | COc1ccc2cc([C@H](C)C(=O)OCC3(C(SN=O)(C4CC4)C4CC4)CCN(C)CC3)ccc2c1
211 to 215 °C | CCc1cc2c(ccc(=O)n2Cc2ccc(Oc3ccccc3CC(=O)O)cc2)c(CC)n1
162 to 164 °C | C(=C\c1nc2ccccc2n1-c1ccccn1)/c1ccoc1
63 to 80 °C | COc1ccc(CN(CCCNc2nccc(=O)[nH]2)c2ccccn2)cc1
123 to 125 °C | CCCCOCCOc1ccc(-c2cnc3c(c2)C=C(C(=O)O)CCCN3CCC)cc1
132 to 133 °C | O=C(O)c1ccccc1OCCCc1cc(-c2ccc(C(F)(F)F)cc2)no1
220 to 221 °C | COc1ccc2c(c1)oc(=O)c1c3ccc(OC)cc3sc21
217 to 219 °C | C=C1CC(Cn2cc(C)c(=O)[nH]c2=O)(c2ccc(-c3ccccc3)cc2)OC1=O (centres undefined)
152 to 154 °C | Cc1ccc(C(=O)c2ccc(CC(=O)O)n2C)s1
116 to 118 °C | COc1cccc2c(Nc3ccccc3C)c(C(=O)C(C)C)cnc12
152 to 153 °C | Cc1oc(-c2ccccc2)nc1CCc1nc(COc2ccccc2CC(=O)O)cs1
54 to 55 °C | CC(C)(C)C(=O)OCOC(=O)COc1ccc(Cc2ccc(Cl)cc2)cc1
310 °C | O=C1NC(=O)c2c3ccccc3cc3cccc1c23
> 300 °C | O=C(O)c1ccccc1Sc1c(O)c2ccc(Cl)cc2[nH]c1=O
112 to 113 °C | Cc1oc(-c2ccccc2)nc1CCc1ccc(CCCC2OC(=O)NC2=O)cc1 (centres undefined)

— a melting point compilation (Tetko et al.; mined from patent text by program, amines drawn as free bases though some values may be those of a salt)
